This is an account of results in PubChem BioAssay AID256 (DTP/NCI, 2004).

This test relates to CD2F1 mice, L1210 leukemia ip, survival T/C. Description: NCI In Vivo Anticancer Drug Screen. Data for tumor model L1210 Leukemia (intraperitoneal) in CD2F1 (CDF1) mice. Conditions: higher = longer survival. In outline: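 Antitumor effect is scored in animals hosting a serially transplanted tumor. Values compare compound-dosed animals against vehicle-only controls as a simple quotient.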

The mark [1] stands for this setting: endpoint: mean survival time, dose: 100.0 mg/kg/injection, schedule: Q04DX002 (ip), vehicle: saline with Tween-80.
Setting [2] is: endpoint: mean survival time, dose: 200.0 mg/kg/injection, schedule: Q04DX002 (ip), vehicle: saline with Tween-80.
Where [3] appears, read: endpoint: mean survival time, dose: 400.0 mg/kg/injection, schedule: Q04DX002 (ip), vehicle: saline with Tween-80.
The mark [4] stands for this setting: endpoint: mean survival time, dose: 100.0 mg/kg/injection, schedule: Q04DX003 (ip), vehicle: saline with Tween-80.
Setting [5] is: endpoint: mean survival time, dose: 200.0 mg/kg/injection, schedule: Q04DX003 (ip), vehicle: saline with Tween-80.
Setting [6] is: endpoint: mean survival time, dose: 400.0 mg/kg/injection, schedule: Q04DX003 (ip), vehicle: saline with Tween-80.

“And” between values parts separate entries of the source, which are not always exact repeats. Equal values may be shown once. Inconclusive results and toxic doses are left out. Non-standard residues stand in square brackets, D forms with d. Residues, ends and D or L forms follow the SMILES beside them. ξ: configuration not given here. *: point of attachment. ξF = NC(Cc1ccccc1)C(=O)O; Cbz = O=C(OCc1ccccc1)*; OBn = c1ccc(CO*)cc1

As for `CC(CN1CC(=O)NC(=O)C1)N1CC(=O)NC(=O)C1` (configuration not stated), the T/C is 112 % of control (endpoint: mean survival time, dose: 4.0 mg/kg/injection, schedule: Q01DX009 (ip), vehicle: saline); 123 % of control (endpoint: mean survival time, dose: 8.0 mg/kg/injection, schedule: Q01DX009 (ip), vehicle: saline); 158 % of control (endpoint: mean survival time, dose: 32.0 mg/kg/injection, schedule: Q01DX009 (ip), vehicle: saline); 117 % of control (endpoint: mean survival time, dose: 32.0 mg/kg/injection, schedule: Q04DX003 (ip), vehicle: saline); 96 % of control (endpoint: mean survival time, dose: 50.0 mg/kg/injection, schedule: Q01DX001 (ip), vehicle: saline); 124 % of control (endpoint: mean survival time, dose: 64.0 mg/kg/injection, schedule: Q01DX009 (ip), vehicle: saline). The T/C is 104 % of control (endpoint: mean survival time, dose: 128.0 mg/kg/injection, schedule: Q01DX009 (ip), vehicle: saline); 196 % of control (endpoint: mean survival time, dose: 256.0 mg/kg/injection, schedule: Q04DX003 (ip), vehicle: saline); 251 % of control (endpoint: mean survival time, dose: 512.0 mg/kg/injection, schedule: Q04DX003 (ip), vehicle: saline); 169 % of control and 170 % of control (endpoint: median survival time, dose: 180.0 mg/kg/injection, schedule: Q04DX003 (ip), vehicle: Klucel (hydroxypropylcellulose) (HPC)); 236 % of control (endpoint: median survival time, dose: 300.0 mg/kg/injection, schedule: Q04DX003 (ip), vehicle: Klucel (hydroxypropylcellulose) (HPC)); 122 % of control (endpoint: median survival time, dose: 500.0 mg/kg/injection, schedule: Q04DX003 (ip), vehicle: Klucel (hydroxypropylcellulose) (HPC)).
Regarding `O=C(O)CSCSCC(=O)O`, the T/C is, setting by setting: (endpoint: mean survival time, dose: 100.0 mg/kg/injection, schedule: Q04DX003 (ip), vehicle: saline) 97 % of control; (endpoint: mean survival time, dose: 200.0 mg/kg/injection, schedule: Q04DX003 (ip), vehicle: saline) 100 % of control; (endpoint: mean survival time, dose: 400.0 mg/kg/injection, schedule: Q04DX003 (ip), vehicle: saline) 97 % of control.
Regarding `NC(N)=N/N=C/c1cc(Cl)cc(Cl)c1O`, the T/C by setting is: (endpoint: mean survival time, dose: 18.8 mg/kg/injection, schedule: Q01DX009 (ip), vehicle: saline) 108 % of control; (endpoint: mean survival time, dose: 18.8 mg/kg/injection, schedule: Q04DX003 (ip), vehicle: saline) 106 % of control; (endpoint: mean survival time, dose: 37.5 mg/kg/injection, schedule: Q01DX009 (ip), vehicle: saline) 109 % of control; (endpoint: mean survival time, dose: 37.5 mg/kg/injection, schedule: Q04DX003 (ip), vehicle: saline) 112 % of control; (endpoint: mean survival time, dose: 75.0 mg/kg/injection, schedule: Q01DX009 (ip), vehicle: saline) 94 % of control; (endpoint: mean survival time, dose: 75.0 mg/kg/injection, schedule: Q04DX003 (ip), vehicle: saline) 114 % of control.
`CCCC/C=C\C=C/CCCC`: the T/C is, setting by setting: (endpoint: mean survival time, dose: 100.0 mg/kg/injection, schedule: Q01DX001 (ip), vehicle: saline with Tween-80) 102 % of control; (endpoint: mean survival time, dose: 200.0 mg/kg/injection, schedule: Q01DX001 (ip), vehicle: saline with Tween-80) 102 % of control; (endpoint: mean survival time, dose: 400.0 mg/kg/injection, schedule: Q01DX001 (ip), vehicle: saline with Tween-80) 94 % of control.
With `CSc1nc(C)cc(=O)[nH]1`, the T/C runs as follows: under setting [1], 94 % of control; under setting [2], 97 % of control; under setting [3], 90 % of control.
As to `c1cc(-c2cc3ccc(C4=NCCN4)cc3[nH]2)ccc1C1=NCCN1`, the T/C was 111 % of control (endpoint: mean survival time, dose: 3.12 mg/kg/injection, schedule: Q01DX009 (ip), vehicle: saline); 112 % of control (endpoint: mean survival time, dose: 3.12 mg/kg/injection, schedule: Q01DX009 (ip), vehicle: suspension in saline); 124 % of control (endpoint: mean survival time, dose: 6.25 mg/kg/injection, schedule: Q01DX009 (ip), vehicle: saline); 118 % of control (endpoint: mean survival time, dose: 6.25 mg/kg/injection, schedule: Q01DX009 (ip), vehicle: suspension in saline); 119 % of control (endpoint: mean survival time, dose: 12.5 mg/kg/injection, schedule: Q01DX009 (ip), vehicle: saline); 283 % of control (endpoint: mean survival time, dose: 12.5 mg/kg/injection, schedule: Q01DX009 (ip), vehicle: suspension in saline). Further, the T/C (endpoint: mean survival time, dose: 25.0 mg/kg/injection, schedule: Q01DX009 (ip), vehicle: suspension in saline) was 295 % of control and 336 % of control and 337 % of control; the T/C (endpoint: mean survival time, dose: 50.0 mg/kg/injection, schedule: Q01DX009 (ip), vehicle: saline) is 88 % of control.
For `CCCCNP(=S)(NCCCC)NCCCC`, the T/C by setting is: under setting [1], 94 % of control; under setting [2], 94 % of control; under setting [3], 98 % of control.
For `O=C(CNC(=O)OCc1ccccc1)NCC(=O)NC(Cc1ccccc1)C(=O)OCc1ccccc1` (stereo not drawn) (Cbz-Gly-Gly-[ξF]-OBn), the T/C was 97 % of control under setting [4], 103 % of control under setting [5] and 99 % of control under setting [6].
Turning to `CC(=O)NC1=NC(=O)/C(=C/Cc2cccs2)N1C`, the T/C reads like this: (endpoint: mean survival time, dose: 100.0 mg/kg/injection, schedule: Q01DX009 (ip), vehicle: saline with Tween-80) 101 % of control; (endpoint: mean survival time, dose: 200.0 mg/kg/injection, schedule: Q01DX009 (ip), vehicle: saline with Tween-80) 108 % of control.
As to `CN1C(=O)C2CCC1C(O)C2` (configuration not stated), the T/C runs as follows: (endpoint: mean survival time, dose: 25.0 mg/kg/injection, schedule: Q04DX002 (ip), vehicle: saline with Tween-80) 98 % of control; (endpoint: mean survival time, dose: 50.0 mg/kg/injection, schedule: Q04DX002 (ip), vehicle: saline with Tween-80) 106 % of control; under setting [1], 98 % of control; under setting [2], 95 % of control.
As to `C[N+](C)(CCCCCC[N+](C)(C)Cc1ccccc1)Cc1ccccc1`, the T/C (endpoint: mean survival time, dose: 1.25 mg/kg/injection, schedule: Q01DX009 (ip), vehicle: saline with Tween-80) was 93 % of control; the T/C (endpoint: mean survival time, dose: 2.5 mg/kg/injection, schedule: Q01DX009 (ip), vehicle: saline with Tween-80) was 93 % of control; the T/C (endpoint: mean survival time, dose: 5.0 mg/kg/injection, schedule: Q01DX009 (ip), vehicle: saline with Tween-80) is 93 % of control; the T/C (endpoint: median survival time, dose: 0.63 mg/kg/injection, schedule: Q04DX002 (ip), vehicle: saline with Tween-80) was 112 % of control; the T/C (endpoint: median survival time, dose: 1.25 mg/kg/injection, schedule: Q04DX002 (ip), vehicle: saline with Tween-80) was 100 % of control; the T/C (endpoint: median survival time, dose: 2.5 mg/kg/injection, schedule: Q04DX002 (ip), vehicle: saline with Tween-80) was 100 % of control. Further, the T/C (endpoint: median survival time, dose: 5.0 mg/kg/injection, schedule: Q04DX002 (ip), vehicle: saline with Tween-80) is 100 % of control.
For `Cc1[nH]c(=O)[nH]c(=O)c1-n1nnc2ccccc2c1=O`, the T/C is 97 % of control under setting [4], 97 % of control under setting [5] and 95 % of control under setting [6].
Take `CC(C)(CC(=O)O)Cc1ccc([N+](=O)[O-])cc1`: the T/C under setting [4] was 102 % of control, the T/C under setting [5] is 98 % of control and the T/C under setting [6] is 102 % of control.
For the compound `Nc1nc(SCC(=O)c2ccccc2)c2[nH]cnc2n1`, the T/C runs as follows: (endpoint: mean survival time, dose: 100.0 mg/kg/injection, schedule: Q04DX003 (ip), vehicle: saline sonified) 113 % of control; (endpoint: mean survival time, dose: 176.0 mg/kg/injection, schedule: Q04DX003 (ip), vehicle: saline with Tween-80) 113 % of control; (endpoint: mean survival time, dose: 200.0 mg/kg/injection, schedule: Q04DX003 (ip), vehicle: saline sonified) 107 % of control.
`CN(C)C(=O)On1cccc1C#N`: the T/C reads like this: (endpoint: mean survival time, dose: 0.78 mg/kg/injection, schedule: Q01DX001 (ip), vehicle: saline) 95 % of control; (endpoint: mean survival time, dose: 1.56 mg/kg/injection, schedule: Q01DX001 (ip), vehicle: saline) 98 % of control; (endpoint: mean survival time, dose: 3.13 mg/kg/injection, schedule: Q01DX001 (ip), vehicle: saline) 98 % of control.
As for `OC1CCCC2CCC[N-]C12.OC1CCCC2CCC[N-]C12.[Mn+2]` (configuration not stated), the T/C was 104 % of control (endpoint: mean survival time, dose: 25.0 mg/kg/injection, schedule: Q01DX009 (ip), vehicle: Klucel (hydroxypropylcellulose) (HPC)); 115 % of control (endpoint: mean survival time, dose: 50.0 mg/kg/injection, schedule: Q01DX009 (ip), vehicle: Klucel (hydroxypropylcellulose) (HPC)); 104 % of control (endpoint: mean survival time, dose: 100.0 mg/kg/injection, schedule: Q01DX009 (ip), vehicle: Klucel (hydroxypropylcellulose) (HPC)).
Take `O=Cc1cc(Br)c(O)c(Br)c1`: the T/C is 97 % of control (endpoint: mean survival time, dose: 50.0 mg/kg/injection, schedule: Q01DX001 (ip), vehicle: Klucel (hydroxypropylcellulose) (HPC)); 93 % of control (endpoint: mean survival time, dose: 100.0 mg/kg/injection, schedule: Q01DX001 (ip), vehicle: Klucel (hydroxypropylcellulose) (HPC)); 97 % of control (endpoint: mean survival time, dose: 200.0 mg/kg/injection, schedule: Q01DX001 (ip), vehicle: Klucel (hydroxypropylcellulose) (HPC)).
